Drawing on US20230107216A1, “PANTETHEINE DERIVATIVES AND USES THEREOF” (Comet Therapeutics, Inc., priority 2018, published 2023), this text covers activation and inhibition for five molecules.

For one experiment, the system named is HepG2 cells. Briefly: Mitochondrial membrane potential (MITO-ID MP detection Kit). The experiment is classed as cell-based. To be noted: Homo sapiens, 168 h, 7 days, read-out: % increase in Mitochondrial Membrane Potential. As to the method:
HepG2 cells (ATCC, HB-8065) were cultured (5% CO2 at 37° C.) and plated in Poly-D-Lysine 384-Well plate (Corning, 356663) at a density of 160000 cells/mL in 50 μL/well. Culture and assay media consisted of DMEM (Gibco, 11995-065) supplemented with 1% Penicillin-Streptomycin and 10% FBS (Hyclone, SV30087.03).
MITO-ID® MP detection Kit (ENZ-51018) was used and manufacturer instructions followed. Cells were allowed to settle for 30 min at room temperature and further incubated overnight (37° C. and 5% CO2) for adherence. Next day, test compounds (50-10 μM) and vehicle DMSO (0.2%) were added at the recommended volumes to the 384-well plate for 7 days without media change using a Tecan compound dispenser. All the solutions and wash buffers were prepared and dispensed according to manufacturer's volumes for a 384-well plate format.

The test system of experiment [1] is Propionic Acidemia (PA) primary fibroblasts Tsi 6337. Briefly: Mitochondrial respiration, XFe96 Extracellular Flux Analyzer (OCR/ECAR), PA fibroblasts Tsi 6337. The experiment is classed as cell-based. To be noted: Homo sapiens, Fibroblast, read-out: Increase in Maximal Respiratory Capacity AUC. The protocol: The effect of the compounds of the present disclosure on mitochondrial respiration was measured with a XFe96 Extracellular Flux Analyzer (Seahorse Bioscience, Agilent Technologies) and Oxygen consumption Rate (OCR) and Extracellular acidification rate (ECAR) determined.
Cell culture and treatments. Primary adherent fibroblasts were cultured in minimum essential medium (MEM) (Gibco, 25030081) supplemented with 2 mM L-Glutamine (Gibco, 25030081), 15% fetal bovine serum (FBS) (Gibco, 26400044) and 1% penicillin/streptomycin (Gibco, 5140122) at 37° C. and 5% CO2. Cells were collected for either passaging or experiment at ˜70-80% confluence. Cells were obtained by trypsinization and seeded at 20000 cells/well in cell culture microplates (Seahorse Bioscience, 101085-004) and allowed to adhere for 16 hours in culture media.
By profiling different primary cells and/or optimizing their culture media or environmental components one can select cell lines and/or conditions that are appropriate for the biological or disease model. In the present example, 24 hours prior to OCR and ECAR profiling, media was changed to Dulbecco's Modified Eagle Medium (DMEM, Agilent Seahorse 103575-100) with the appropriate supplements for the different primary cells (10 mM glucose, 2 mM L-glutamine, 1 mM pyruvate, 10% FBS; 1 mM glucose, 2 mM L-glutamine, 1 mM pyruvate, 10% FBS; 10 mM glucose, 10% FBS; 5 mM glucose 10% FBS; 1 mM glucose 10% FBS). Cells used in this example were: Propionic Acidemia (PA) (GM00371, GM03590 Coriell Institute for Medical Research, Tsi 6337, Tsi 4626, Tsi 3618 Trans-Hit Bio), Methylmalonic Acidemia (MMA) (GM01673, Coriell Institute for Medical Research, Tsi 5224 Trans-Hit Bio), Branched chain ketoacid dehydrogenase kinase (BCKDK) (GM00612, GM00649 Coriell Institute for Medical Research), Subnormal activation of pyruvate dehydrogenase complex (PDH) (GM01503 Coriell Institute for Medical Research), Very long-chain acyl-CoA dehydrogenase (VLCAD) (GM17475), Leigh Syndrome (LS) (GM03672, GM13411 Coriell Institute for Medical Research), Pyruvate Carboxylase Deficiency (PC) (GM00444 Coriell Institute for Medical Research), Glutaric Acidemia-I (GA) (GM10653), Friedreich's Ataxia (FXN) (GM04078 Coriell Institute for Medical Research, Huntington's disease (HD) (GM21756 Coriell Institute for Medical Research), Ornithine Transcarbamylase Deficiency (OTC) (GM12756 Coriell Institute for Medical Research), Kearns-Sayre Syndrome (KSS) (GM06225 Coriell Institute for Medical Research).
One hour before the assay, the cells were washed with freshly prepared unbuffered serum free-Seahorse XF Assay medium (Seahorse Bioscience, North America, USA, 103575-100) with the same supplements as for the previous 24 hour incubation.
After baseline measurements of OCR, cells were challenged with compounds of the present disclosure at different concentrations (10 to 50 μM) or vehicle (DMSO, 0.1%) and a post-compound baseline was recorded. OCR was measured after sequentially adding to each well 1 μg/ml oligomycin (inhibitor of ATP synthase Sigma-Aldrich, 753531), then maximal OCR was determined with carbonyl cyanide 4-(trifluoromethoxy) phenylhydrazone (FCCP, Sigma-Aldrich, C2920), (uncoupler of oxidative phosphorylation) and 0.5 μM of rotenone (Sigma-Aldrich, R8875) plus antimycin A (Sigma-Aldrich, A8674) (inhibitors of mitochondrial complex I and III) for determination of rotenone-antimycin insensitive respiration together with Hoechst for nuclear staining in situ when normalized to cell counts. After the analysis and nuclear staining, the XFp microplate was transferred to the Cytation 5, and the nuclear images were captured, the individual nuclei were identified and counted by BioTek Gen5 software. Data were expressed as pmol of O2 per minute and normalized by nuclear staining and baselined to pre-compound addition.
Assay conditions were as stated below.
Assay specifics on assay conditions are indicated below when readouts were normalized to cell counts. […]

Experiment [2] deals with monocyte-derived M1 macrophages. Briefly: M1 differentiation assay (macrophage TNFα, IL6, IL10 ELISA, FACS). The experiment is classed as cell-based, human. To be noted: Homo sapiens, Macrophage. The gist of the method:
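CD14+ human blood monocytes (100,000) differentiated 6 days with 10 ng/ml GM-CSF plus compound at 10 or 50 μM, refreshed days 2 and 4. Matured 24 h with GM-CSF, IFNγ, LPS plus compound. Supernatant TNFα, IL6, IL10 by ELISA; FACS M1 phenotype CD86+CD68+CD163−.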

Experiment [3] concerns Methylmalonic Acidemia (MMA) primary fibroblasts Tsi 5224. The experiment is described as follows: Mitochondrial respiration, XFe96 Extracellular Flux Analyzer (OCR/ECAR), MMA fibroblasts Tsi 5224. It counts as cell-based. To be noted: Homo sapiens, Fibroblast, MMA Tsi 5224, assay condition C (10 mM glucose, 10% FBS), read-out: Increase in Spare Capacity AUC. The method, boiled down: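 Primary fibroblasts (20000 cells/well) were held 24 h in supplemented DMEM before Seahorse OCR/ECAR profiling. Compounds at 10 to 50 μM or 0.1% DMSO were injected after baseline, then oligomycin 1 μg/ml, FCCP, and rotenone/antimycin A 0.5 μM. Values were normalized to Hoechst nuclear counts, baselined to pre-compound, and expressed relative to vehicle.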

Experiment [4] concerns primary fibroblasts (healthy controls and PA, MMA, BCKDK, PDH, VLCAD, LS, PC, GA, VLCFA, KSS, FXN, HD). The experiment is described as follows: Measurement of ROS (H2DCFDA) in primary fibroblasts. To be noted: Homo sapiens, procedure Example 812. It counts as cell-based, human. The gist of the method:
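Patient and healthy-control primary fibroblasts switched to supplemented DMEM 24 h before assay, then treated with compound (10 μM) plus H2DCFDA (22 μM) for 2 h (PA, MMA lines) or 24 h (other lines). Kinetic fluorescence at 492/527 nm over 60 min; only live cells analysed.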

The subject of experiment [5] is primary culture of rat embryo mesencephalic cells (microglia, astrocytes and neurons) exposed to LPS. Briefly: Neuroprotective effect on damage induced by LPS on culture of mesencephalic neurons (NO, TNF-α, IL-1β, TH positive neurons). The experiment is classed as cell-based. To be noted: Rattus norvegicus, Neuron, 120 h, 50 uM, after 5 days of LPS exposure; list at threshold 15%; read-out: % reversion of TH positive neurons. As to the method:
Drug preparation. […] The stock solutions will be prepared 1000× the concentration in 100% DMSO. The final concentration of the vehicle (DMSO) is set at 0.1%.
Test animals. Pregnant Wistar rats (Janvier; France) are used for the study. They are group-housed and maintained in a room with controlled temperature (21-22° C.) and a reversed light-dark cycle (12h/12h; lights on: 17:30-05:30; lights off: 05:30-17:30) with food and water available ad libitum.
The protocol is performed in 3 independent cultures. For each culture, each condition is performed in sextuplicate.
Female rat of 15 days gestation is killed by cervical dislocation. Fetuses are removed from the uterus and their brains are harvested and placed in ice-cold medium (Leibovitz's L15 medium, Gibco). Only ventral mesencephalic flexure is used for the cell preparations. The midbrain is dissociated by trypsinization. The reaction is stopped, and the suspension is triturated and centrifuged. The pellet of dissociated cells is resuspended in culture medium consisted of DMEM-F12 (Gibco), containing 10% FBS (ATCC), 10% Horse serum (Gibco) and 2 mM L-glutamine (Gibco). Viable cells are counted and seeded on 96-well plates, precoated with poly-L-lysine. Cells are maintained in a humidified incubator at 37° C. in 5% CO2-95% air atmosphere. Half of the medium is changed on day 2 and day 5.
Treatment. On day 7, culture media are removed and replaced by new medium consisting of DMEM-F12 (Gibco) supplemented with 2% FBS (ATCC), 2% Horse serum (Gibco) and 2 mM L-glutamine (Gibco) and containing vehicle or test substances. After 1-hour exposure, LPS at 10 ng/ml is added and exposure further continued for 24 hours or 5 days period.
Inflammatory response measurement and neuronal death evaluation. NO production is measured in the media 24h and 5 days after LPS exposure using the Griess reagent kit (Molecular Probes). The Griess reagent Assay is a colorimetric reaction assay which measures the conversion of a sulfanilic salt into an azo dye product by nitrite. Visible wavelength absorbance data is collected using a 96-well plate reader at 570 nm (Multiskan EX, Thermo Fisher, France). IL-1β and TNF-α release are measured in the media 24h after LPS exposure using the ELISA development kit (PeproTech). The ELISA plate, previously coated with anti-IL-1β or anti-TNF-αantibody at 1 μg/ml, is incubated 1h with PBS containing 1% of BSA (bovine serum albumin). After washing four times with PBS containing 0.05% of Tween-20, the plate is successively incubated 2h with supernatant, 2h with biotinylated antibody at 0.5 μg/ml in PBS containing 0.1% of BSA and 0.05% of Tween-20, 45 min with Avidin-HRP conjugated at 1/2000 and 30 min with color ABTS substrate (Sigma). Visible wavelength absorbance data is collected using a 96-well plate reader at 405 nm with wavelength correction set at 650 nm (Multiskan EX, Thermo Fisher, France).
Immunodetection of tyrosine hydroxylase positive neurons. On day 12 (5 days after LPS exposure), cultures are fixed 30 min at 4° C. with paraformaldehyde in PBS (4%, Sigma). Then, cells are successively permeabilized with 0.1% Triton X100 for 30 min, saturated with PBS containing 3% of BSA (bovine serum albumin) and are incubated 2h with anti-tyrosine hydroxylase antibody (Sigma, 1:10000; clone TH-2) at 1/10 000 in PBS containing 0.5% of BSA. Cells are washed three times with PBS containing 0.5% of BSA, and they are incubated 1h with goat anti mouse antibody coupled with AF488 (Invitrogen A11001) diluted at 1/1000 in PBS containing 0.5% of BSA. Finally, nuclei are stained with DAPI at 1/1000 in PBS containing 0.5% of BSA. After rinsing with PBS, the plate is visualized and examined with Cell Insight HCS (Thermo Scientific) to determine the number of tyrosine hydroxylase positive cells per well.
Statistical Analysis. The drug-induced effect on NO and cytokines is calculated by setting the response of the LPS-stimulated control as 100%. […]

[6] abbreviates: PA Tsi 6337, assay condition A (10 mM glucose, 2 mM L-glutamine, 1 mM pyruvate, 10% FBS).

Where two headings read alike, the source gives them in different places.

`CC(C)(CO)[C@@H](O)C(=O)NCCC(=O)NCCSC(=O)C1CCC(=O)O1` (stereo partly drawn) [Compound 1229, S-2-{3-[(R)-2,4-dihydroxy-3,3-dimethylbutyrylamino]propionylamino} ethyl 5-oxo-3,4-dihydro-2H-furan-2-carbothioate]: the activation at 10 µM in the experiment with HepG2 cells is above 20%; in experiment [1] (setting [6]), at least 10%. For the same molecule, the inhibition at 10 µM in experiment [2] (10 uM, read-out: % decrease in Macrophage IL-6 Secretion) was at least 30%. Moreover, the activation at 50 µM in experiment [2] (50 uM, read-out: % Increase in IL-10 Secretion) was at least 30%.
Regarding `COC(=O)CCC(=O)OCC(C)(C)[C@@H](O)C(=O)NCCC(=O)NCCSC(=O)CCC(=O)OC` [Compound 1230], the activation at 10 µM in the experiment with HepG2 cells was above 30%; in experiment [1] (setting [6]) it was at least 10%; in experiment [1] (PA Tsi 6337, assay condition D (1 mM glucose, 10% FBS)) it was at least 10%.
For `CC(C)(COC(=O)CCC(=O)O)[C@@H](OC(=O)CCC(=O)O)C(=O)NCCC(=O)NCCSC(=O)CCC(=O)O` [Compound 1233], the activation at 10 µM in experiment [3] is at least 50%; in experiment [1] (setting [6]) it was at least 10%. Also, the inhibition at 10 µM was at least 10% in experiment [4] (Fibroblast, BCKD GM00612, Assay Condition A, read-out: Decreased ROS by at least 10%); at least 30% in experiment [4] (Fibroblast, VLCFA GM13262, Assay Condition C, read-out: Decreased ROS by at least 30%); at least 10% in experiment [4] (FXN GM04078, Assay Condition C, read-out: Decreased ROS by at least 10%); at least 30% in experiment [4] (FXN GM04078, Assay Condition C, read-out: Decreased ROS by at least 30%).
Regarding `C[C@@H](CC(=O)SCCNC(=O)CCNC(=O)[C@H](O)C(C)(C)CO)OC(=O)CCC(=O)O` [Compound 1247, 4-{[(2S)-4-[(2-{3-[(2R)-2,4-dihydroxy-3,3-dimethylbutanamido]propanamido}ethyl)sulfanyl]-4-oxobutan-2-yl]oxy}-4-oxobutanoic acid], the activation at 50 µM with HepG2 cells (50 uM) is above 20%. Moreover, the activation at 10 µM in experiment [1] (setting [6]) is at least 10%.
With `CC(C)(CO)[C@@H](O)C(=O)NCCC(=O)NCCS` [Preparatory Ex 5], in experiment [5], the inhibition at 50 µM is at least 15%.
